The test system of series [1] is pre-established E. coli biofilms. The experiment in a line: Disruption of pre-established E. coli biofilms (crystal violet assay). Format: cell-based, Escherichia coli. The conditions noted are these: 2× MIC, 24 h treatment (64 μM for 17c). The procedure:
(§1) Bacterial cultures (S. aureus and E. coli) were cultured in MHB at 37 °C with shaking at 120 rpm for 24 h. The resulting bacterial culture was washed twice with MHB with centrifugation after each wash. The bacterial solution was then diluted with fresh MHB to a turbidity of OD660 = 0.1 in MHB (equivalent to 10^8 colony forming unit (CFU)/mL of bacteria), followed by diluting to 10^6 CFU/mL in MHB. A total of 200 µL of the bacterial solution was dispensed to wells in a flat-bottom 96-well plate (Costar). The biofilm was then grown in the plate at 37 °C for 24 h. After incubation, loosely bound cells were washed away with 1× phosphate-buffered saline (PBS, pH 7.4). The biofilms were then supplemented with different concentrations of peptidomimetics dissolved in DMSO and incubated at 37 °C with shaking at 120 rpm for a further 24 h. Biofilms adhered on the plate substratum were quantified, using crystal violet staining as described previously. The experiment was performed in triplicate.

For a further series, the system named is E. coli (K12). Put plainly: Minimum inhibitory concentration (MIC) assay against E. coli. Format: cell-based. The conditions noted are these: Escherichia coli.
The test system of series [2] is MRC-5 normal human lung fibroblasts. Put plainly: MTT cytotoxicity assay. The format is cell-based. The conditions noted are these: Homo sapiens, MRC5, 72 h, 72 h drug incubation, read-out: IC50 against MRC-5 normal human lung fibroblasts. The procedure:
The IC50 values of the tested peptidomimetics were determined from a dose-response curve. […] The therapeutic indices for each tested peptidomimetic against Gram-positive S. aureus and Gram-negative E. coli were calculated by dividing the IC50 value against human cells by the corresponding MIC value (Table 2).
The toxicity of the peptidomimetics against normal human lung fibroblasts MRC-5 cells was measured, using an MTT (3-(4,5-dimethylthiazol-2-yl)-2,5-diphenyltetrazolium bromide) (Sigma Aldrich, St. Louis, MO, USA) colorimetric assay. The cells were cultured in minimal essential medium (MEM, Invitrogen) containing 10% foetal bovine serum (FBS). The cells were maintained at 37 °C in 5% CO2 as an adherent monolayer and was passaged upon reaching confluence by standard cell culture techniques. MRC-5 cells were seeded at 5000 cells/well in 96-well plates to ensure full confluence (quiescence) and left overnight to adhere to the plate wells. The adherent cells were treated with 1–500 μM of compounds by dissolving in DMSO and serially diluting with media. TY-01 was used as the positive control. The final concentration of DMSO was 0.5% (v/v). After the 72 h drug incubation, […] stock MTT solution (5 mg/mL) was added, and the cells were incubated for another 3.5–4 h. The MTT solution containing media was carefully aspirated without displacing the purple crystals from the bottom, and […] acid-isopropanol was added to all wells and mixed slowly by shaking with an orbital shaker to dissolve the dark blue crystals. […] The determination of IC50 values was performed using GraphPad Prism 7 (GraphPad, San Diego, CA, USA). Each experiment was performed in triplicate and was repeated in three independent experiments.
In general terms: Tetrazolium dyes change colour on reduction, which living cells bring about.

The subject of series [3] is pre-established S. aureus biofilms. Put plainly: Disruption of pre-established S. aureus biofilms (crystal violet assay). The format is cell-based, Staphylococcus aureus. The method, then:
As bacterial biofilms are one of the major challenges in treating bacterial infection, the ability of the synthesised peptidomimetics to disrupt pre-established biofilms was investigated.
as §1

In series [4] the test system is S. aureus biofilm formation. Put plainly: Inhibition of S. aureus biofilm formation (crystal violet staining). The format is cell-based, Staphylococcus aureus. The procedure: In this assay, S. aureus was incubated in the presence of different concentrations of the tested peptidomimetics under a static condition. After overnight incubation, planktonic bacteria were removed, and the remaining biofilms were quantified, using crystal violet staining.
S. aureus was cultured in Muller Hinton broth (MHB; Oxoid) at 37 °C with shaking at 120 rpm for 24 h. The resulting bacterial culture was washed twice with MHB with centrifugation after each wash. The bacterial solution was then diluted with fresh MHB to a turbidity of OD660 = 0.1 in MHB (equivalent to 10^8 colony forming unit (CFU)/mL of bacteria), followed by diluting to 10^6 CFU/mL in MHB. A total of 100 µL of the bacterial solution was added to wells of a 96-well plate (Costar; Sigma-Aldrich, St. Louis, MO, USA) containing 100 µL serially diluted peptidomimetics. After incubation at 37 °C for 24 h, loosely bound cells were washed away with 1× phosphate-buffered saline (PBS, pH 7.4). Biofilms adhered on the plate substratum were quantified, using crystal violet staining as described previously. Untreated bacteria were used as a negative control, where the percentage of biofilm mass reflected 100% biofilm growth. The experiment was performed in triplicate.

The next series can be described thus: Haemolysis assay. Format: cell-based. The conditions noted are these: washed human red blood cells. The procedure: A total of 20 mL of human blood collected in EDTA coated tubes was transferred into a 50 mL centrifuge tube and centrifuged at 500× g (700) for 5 min. The supernatant plasma was discarded and an equal volume of 1× PBS was added. The washing was repeated five times with cells mixed by inversion. The washed pallet was then resuspended in 1:10 with PBS to yield an RBC concentration of ~5 × 10^8 RBC/mL. The peptidomimetics were serially diluted with PBS, with final concentrations ranging from 8 to 500 µM. Milli-Q water and 1× PBS were used as positive and negative controls. The cells were then incubated at 37 °C for 3 h. Following incubation, the suspension was centrifuged at 1100× g for 5 min. The final optical density was measured at 540 nm. The percentage of haemolysis was calculated, using the following equation. % haemolysis=(absorbance of test sample−absorbance of diluent)/(absorbance of positive control−absorbance of diluent)×100%

The test system of another series is S. aureus (SA38). The experiment in a line: Minimum inhibitory concentration (MIC) assay against S. aureus. Format: cell-based, Staphylococcus aureus. The conditions noted are these: Staphylococcus aureus.
For a further series, the system named is P. aeruginosa (PAO1). The experiment in a line: Minimum inhibitory concentration (MIC) assay against P. aeruginosa. The format is cell-based. The conditions noted are these: Pseudomonas aeruginosa.
The test system of series [5] is pre-established S. aureus biofilms. The arrangement: method as in PMID 27405275. The conditions noted are these: 4× MIC; cited from earlier work.
In series [6] the test system is S. aureus cytoplasmic membrane. The experiment in a line: Cytoplasmic membrane permeability assay (diSC3-5 dye release). The format is cell-based, Staphylococcus aureus. The conditions noted are these: 1× and 2× MIC, read up to 15 min. An excerpt: This dye readily partitions into and aggregates in bacterial cell membranes, quenching its own fluorescence. However, structural damage to the bacterial cell membrane causes a loss in the membrane potential, which results in the leakage of dye from the bacterial cell membrane into the medium and an increase in fluorescence intensity. By detecting changes in fluorescence intensity, the integrity of the bacterial cytoplasmic membrane can be monitored.
Membrane potential sensitive dye diSC3–5 (3,3′-dipropylthiadicarbocyanine iodide), which penetrates inside bacterial cells depending on the membrane potential gradient of the cytoplasmic membrane, was used to determine the bacterial cytoplasmic membrane permeability following the procedure previously described with slight modification. Bacteria (S. aureus) were incubated in MHB with shaking at 37 °C for 16 h. After incubation, the bacteria were washed with 5 mM HEPES, supplemented with 20 mM glucose at pH 7.2 and diluted in the same buffer to an OD600 0.05–0.06 (equivalent to a final concentration of 10^7 CFU/mL bacteria). The diSC3–5 dye was added at 4 μM to the bacterial suspension. […] Fluorescence due to the release of dye was measured with a FLUOstar Omega (BMG Labtech) microplate reader at 5 min intervals at an excitation wavelength of 621 nm and an emission wavelength of 670 nm.

[7] abbreviates: S. aureus SA38, read-out: MIC S. aureus.
[8] abbreviates: in trypticase soy broth (TSB), Mueller Hinton broth (MHB) or cationic adjusted MHB, read-out: MIC S. aureus in different growth media.
Setting [9] is: highest concentration tested 250 μM.

Several values for one entry are separate records, joined by “and”; a condition that tells them apart may be missing. Equal entries are not always repeated. Where two headings read alike, the source gives them in different places.

As for `CCCCCCCCCCCCS(=O)(=O)Nc1ccc(-c2ccccc2)cc1C(=O)C(=O)NCCC[N+](C)(C)C.[I-]` [Compound 17c, 3-(2-(4-(Dodecylsulfonamido)-[1,1′-biphenyl]-3-yl)-2-oxoacetamido)-N,N,N-trimethylpropan-1-aminium iodide], the “disruption of pre-established E. coli biofilms” value in series [1] is listed as 28%. Besides, the minimal inhibitory concentration (MIC) against E. coli (K12) is 32 µM; in the series with S. aureus (SA38) (setting [7]), 8 µM and 5.6 µg/mL; in the series with S. aureus (SA38) (setting [8]) it was 8 µM and 5.6 µg/mL; in the series on P. aeruginosa (PAO1) it was greater than 175 µg/mL; against P. aeruginosa (PAO1) (setting [9]), greater than 250 µM. The IC50 in series [2] was 57.5 µM and 40.2 µg/mL. Also, the “disruption of pre-established S. aureus biofilms” value in [3] (1× MIC, 24 h treatment) is 20–36%; in series [3] (4× MIC, 24 h treatment (32 μM for 17c)), 44%. Also, the “inhibition of S. aureus biofilm formation” value stood at 56% in [4] (0.5× MIC (sub-MIC)), 70% in [4] (2× MIC (16 μM for 17c)) and 65% in series [4] (4× MIC). The same compound yielded a hemolysis at 3 h, 32 µM in the series “Haemolysis assay” of 16%.
On to “LL-37: cathelicidin (LL-37), antimicrobial peptide in phase IIb clinical trials for the treatment of chronic leg ulcers (LLGDFFRKSKEKIGKEFKRIVQRIKDFLRNLVPRTES; Antibacterial peptide LL-37; UniProt P49913 134-170, looked up)”, for which the “disruption of pre-established S. aureus biofilms” value in series [5] is “about 40%”.
Take `CCCCCCCCS(=O)(=O)Nc1ccc(-c2ccc(-c3ccccc3)cc2)cc1C(=O)C(=O)NCCC[N+](C)(C)C.[I-]` [Compound 16d, N,N,N-Trimethyl-3-(2-(4-(octylsulfonamido)-[1,1′:4′,1″-terphenyl]-3-yl)-2-oxoacetamido)propan-1-aminium iodide]: the minimum inhibitory concentration (MIC) against E. coli (K12) was > 250 µM and > 180 µg/mL; in the series with S. aureus (SA38) (setting [7]), 4 µM and 2.9 µg/mL; with S. aureus (SA38) (setting [8]) it was 4 µM and 2.9 µg/mL; against P. aeruginosa (PAO1) it was greater than 180 µg/mL; against P. aeruginosa (PAO1) (setting [9]), greater than 250 µM. For the same compound, the “S. aureus cytoplasmic membrane disruption (increase in fluorescence intensity)” value in [6] is listed as “least active compound”. In addition, in [2], the IC50 is 53.7 µM and 38.6 µg/mL. Further, in series [3] (1× MIC, 24 h treatment), the “disruption of pre-established S. aureus biofilms” value is listed as “no antibiofilm activity”. Besides, the “inhibition of S. aureus biofilm formation” value in series [4] (0.5× MIC (sub-MIC)) was found to be 35%. In “Haemolysis assay”, this compound came in with a hemolysis at 3 h, 32 µM of 11%.

In general, MIC refers to the least concentration at which growth counts as inhibited. In general, IC50 refers to the concentration needed to halve the response being measured.

These data come from PMC8303886, “Polyphenylglyoxamide-Based Amphiphilic Small Molecular Peptidomimetics as Antibacterial Agents with Anti-Biofilm Activity” (International Journal of Molecular Sciences, 2021).
